Experimental findings from PubChem BioAssay (NCI) are described below.

The structures appear in SMILES notation.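 Protocol summary: plate cells (96-well), add compound at 5 concentrations, incubate 48 h, interpolate endpoints linearly. GI50 = concentration required for 50% inhibition of growth. TGI: total growth inhibition.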 Where a SMILES comes first, the peptide text is derived from it. Bridges are numbered along the chain shown (N, C = ends). Roman numbers before positions name the chains, in order. [ ]: non-standard residue; d: D form. The star is where a group is joined. Heptadecanoyl = CCCCCCCCCCCCCCCCC(=O)*; Phg = N[CH](C(=O)O)c1ccccc1

Test systems include OVCAR-8 ovarian; NCI/ADR-RES ovarian; LOX IMVI melanoma; OVCAR-4 ovarian; NCI-H522 lung; UACC-62 melanoma; HOP-62 NSCLC; CCRF-CEM leukemia; NCI-H460 lung; SK-MEL-28 melanoma.
Assay in all cases: NCI-60 cell line screen, 48 h

Take `CCC(C)(C)c1ccc(Oc2cccc(C(=O)O)c2)cc1`: the TGI was more than 100 µM in the test with OVCAR-8 ovarian; more than 100 µM in the test with NCI/ADR-RES ovarian; more than 100 µM with LOX IMVI melanoma; more than 100 µM in the test on OVCAR-4 ovarian; 89.9 µM in the test on NCI-H522 lung; more than 100 µM in the test with UACC-62 melanoma. The TGI in the test on HOP-62 NSCLC is more than 100 µM; with CCRF-CEM leukemia, 68 µM; in the test on NCI-H460 lung it was more than 100 µM; with SK-MEL-28 melanoma, more than 100 µM.

`Cc1cccc(C(O)c2ccccn2)c1O` (stereo not drawn): the TGI in the test with OVCAR-8 ovarian, with NCI/ADR-RES ovarian, with LOX IMVI melanoma, in the test with NCI-H522 lung, in the test on UACC-62 melanoma and with HOP-62 NSCLC was more than 100 µM throughout. For the same compound, the TGI with CCRF-CEM leukemia, in the test on NCI-H460 lung and with SK-MEL-28 melanoma was more than 100 µM in each case.

Take `CO[C@H]1C[C@H](O[C@H]2CC[C@]3(C=O)[C@H]4CC[C@]5(C)[C@@H](C6=CC(=O)OC6)CC[C@]5(O)[C@@H]4CC[C@]3(O)C2)O[C@H](C)[C@H]1O[C@@H]1O[C@H](CO[C@@H]2O[C@H](CO)[C@@H](O)[C@H](O)[C@H]2O)[C@@H](O)[C@H](O)[C@H]1O`: the TGI in the test with OVCAR-8 ovarian is 0.167 µM; in the test on NCI/ADR-RES ovarian it was 0.15 µM; in the test with LOX IMVI melanoma, 0.137 µM; in the test with OVCAR-4 ovarian it was 0.144 µM; with NCI-H522 lung, 0.0638 µM; in the test on UACC-62 melanoma it was 0.467 µM. The TGI is 0.0388 µM in the test with HOP-62 NSCLC, more than 100 µM with CCRF-CEM leukemia, 0.0425 µM with NCI-H460 lung and 1.15 µM in the test on SK-MEL-28 melanoma.

On to `CC1=C/C(=C(/c2ccc(O)c(C)c2)c2ccccc2C(=O)O)C=CC1=O`, for which the TGI is 36.3 µM in the test on OVCAR-8 ovarian; 80.5 µM in the test on NCI/ADR-RES ovarian; 35.9 µM in the test with LOX IMVI melanoma; 33.9 µM in the test on OVCAR-4 ovarian; 42.7 µM with NCI-H522 lung; 30.9 µM in the test on UACC-62 melanoma. Besides, the TGI with HOP-62 NSCLC is 38 µM; in the test on CCRF-CEM leukemia it was 45.1 µM; in the test with NCI-H460 lung, more than 100 µM; in the test on SK-MEL-28 melanoma it was 40 µM.

Regarding `N#CC(C#N)=Cc1ccc(-c2ccc(-c3nc4ccccc4s3)cc2)s1`, the GI50 in the test on OVCAR-8 ovarian is 23.1 µM; in the test with NCI/ADR-RES ovarian, 5.74 µM; in the test with LOX IMVI melanoma, 8.5 µM; with OVCAR-4 ovarian it was 51.9 µM; in the test on NCI-H522 lung, 19.4 µM; with UACC-62 melanoma it was 15.1 µM. The GI50 is 13 µM in the test on HOP-62 NSCLC, 21 µM in the test with CCRF-CEM leukemia, 26 µM in the test with NCI-H460 lung and 37.5 µM with SK-MEL-28 melanoma. Besides, the TGI in the test on OVCAR-8 ovarian was 72.2 µM; in the test with NCI/ADR-RES ovarian, 22.7 µM; in the test with LOX IMVI melanoma, 23.5 µM; in the test on OVCAR-4 ovarian, more than 100 µM; with NCI-H522 lung, 54 µM; in the test on UACC-62 melanoma, 30.7 µM. The TGI in the test with HOP-62 NSCLC is 34.2 µM; in the test with CCRF-CEM leukemia it was 62.9 µM; in the test with NCI-H460 lung it was more than 100 µM; in the test on SK-MEL-28 melanoma, more than 100 µM.

For the compound `N.N.N.N.O=S(=O)([O-])[O-].[Co+3].[OH3+].[OH3+]`, the TGI in the test on OVCAR-8 ovarian, in the test with LOX IMVI melanoma, in the test on OVCAR-4 ovarian, in the test with NCI-H522 lung, in the test on UACC-62 melanoma and in the test on HOP-62 NSCLC was more than 100 µM in each case. The TGI in the test with CCRF-CEM leukemia, in the test with NCI-H460 lung and in the test with SK-MEL-28 melanoma was more than 100 µM each time.

As to `CCOC(=O)c1cc(Cl)ccc1OC(N)=O`, the TGI with OVCAR-8 ovarian, in the test on NCI/ADR-RES ovarian, in the test on LOX IMVI melanoma, in the test on OVCAR-4 ovarian, in the test on UACC-62 melanoma and in the test with HOP-62 NSCLC was more than 100 µM each time. Also, the TGI in the test with CCRF-CEM leukemia, in the test with NCI-H460 lung and in the test with SK-MEL-28 melanoma was more than 100 µM each time.

As for `O=C(CN1C(=O)c2ccccc2C1=O)OCC1CCCN2CCCCC12` (stereo not drawn), the TGI with OVCAR-8 ovarian, with NCI/ADR-RES ovarian, in the test on LOX IMVI melanoma, in the test with OVCAR-4 ovarian, in the test with UACC-62 melanoma and in the test on CCRF-CEM leukemia was more than 100 µM throughout. The TGI with NCI-H460 lung and in the test with SK-MEL-28 melanoma was more than 100 µM in each case.

In the case of `CN(C)C(=S)SCc1ccccc1`, the TGI with OVCAR-8 ovarian, in the test with NCI/ADR-RES ovarian, in the test with LOX IMVI melanoma, in the test with NCI-H522 lung, in the test with UACC-62 melanoma and in the test on HOP-62 NSCLC was more than 100 µM each time. Further, the TGI in the test on CCRF-CEM leukemia, in the test on NCI-H460 lung and in the test with SK-MEL-28 melanoma was more than 100 µM each time.

In the case of `C(=N/Nc1ccccn1)/c1cccnc1`, the TGI in the test with OVCAR-8 ovarian, in the test on NCI/ADR-RES ovarian, in the test with LOX IMVI melanoma, in the test on OVCAR-4 ovarian, in the test on NCI-H522 lung and with UACC-62 melanoma was more than 100 µM throughout. For the same compound, the TGI with HOP-62 NSCLC, in the test with CCRF-CEM leukemia, in the test on NCI-H460 lung and in the test with SK-MEL-28 melanoma was more than 100 µM each time.

As to `Clc1ccc(CSCc2ccc(Cl)cc2Cl)c(Cl)c1`, the TGI with OVCAR-8 ovarian is more than 100 µM; in the test with NCI/ADR-RES ovarian, more than 100 µM; with LOX IMVI melanoma it was more than 100 µM; in the test with OVCAR-4 ovarian, more than 100 µM; with NCI-H522 lung it was 74 µM; with UACC-62 melanoma, more than 100 µM. The TGI in the test with HOP-62 NSCLC is more than 100 µM; with CCRF-CEM leukemia, 51.7 µM; in the test with NCI-H460 lung, more than 100 µM; in the test with SK-MEL-28 melanoma it was more than 100 µM.

Consider `CC(C)(C)C1=NN=C2c3ccccc3C(=O)C21` (stereo not drawn), for which the TGI with OVCAR-8 ovarian, with NCI/ADR-RES ovarian, in the test on LOX IMVI melanoma, with OVCAR-4 ovarian, in the test with NCI-H522 lung and with UACC-62 melanoma was more than 100 µM in each case. Moreover, the TGI with HOP-62 NSCLC, in the test on CCRF-CEM leukemia, with NCI-H460 lung and in the test on SK-MEL-28 melanoma was more than 100 µM throughout.

Turning to `C/C(=C\c1ccc2c(c1)OCO2)[N+](=O)[O-]`, the TGI is 5.79 µM in the test on OVCAR-8 ovarian; 37.9 µM with NCI/ADR-RES ovarian; 14 µM with OVCAR-4 ovarian; 3.21 µM with NCI-H522 lung; 4.83 µM in the test on UACC-62 melanoma; more than 100 µM with HOP-62 NSCLC. Moreover, the results for the TGI in the test on CCRF-CEM leukemia, in the test on NCI-H460 lung and in the test with SK-MEL-28 melanoma were more than 100 µM, more than 100 µM and 6.02 µM, respectively.

With `O=C1c2ccc3ccccc3c2CCC1N1CCCCC1` (stereo not drawn), the TGI with OVCAR-8 ovarian turned out to be 37.3 µM; in the test with NCI/ADR-RES ovarian, 46.3 µM; with LOX IMVI melanoma it was 33.7 µM; in the test with OVCAR-4 ovarian, 30.2 µM; with NCI-H522 lung it was 35.7 µM; in the test on UACC-62 melanoma it was 30.3 µM. The values for the TGI in the test on HOP-62 NSCLC, in the test on NCI-H460 lung and in the test with SK-MEL-28 melanoma were 34 µM, 50.4 µM and 33.1 µM, respectively.

`CCCCCCCCCCCCCCCCC(=O)N1CCCC1C(=O)NCC(=O)NC(C(=O)N1CCCC1C(=O)NC(CO)C(=O)NC(Cc1ccc(O)cc1)C(=O)NC(CCCCNC(=O)C1CCCN1C(=O)C(CCCCN)NC(=O)C(CCCCN)NC(=O)C(CCCCN)NC(=O)C(CCCNC(=N)N)NC(=O)C(CCCCN)NC(=O)C(N)C(C)C)C(=O)NC(CC(C)C)C(=O)NC(CCCNC(=N)N)C(=O)N1CCCC1C(=O)NCC(N)=O)c1ccccc1` (stereo not drawn) (I: Heptadecanoyl-PG[Phg]PSYKLRPG-NH2 / II: H-VKRKKKP; amide I:7-II:C; configuration not given here): the GI50 in the test with OVCAR-8 ovarian was 28.2 µM; with NCI/ADR-RES ovarian, 26.2 µM; in the test with OVCAR-4 ovarian it was 46.9 µM; in the test on NCI-H522 lung, 25.5 µM; in the test on HOP-62 NSCLC, 32.3 µM; in the test on CCRF-CEM leukemia, 12 µM. For the same compound, the GI50 in the test on NCI-H460 lung was 23.2 µM; in the test on SK-MEL-28 melanoma it was 19.5 µM. Moreover, the TGI is 84.6 µM in the test with OVCAR-8 ovarian; 84 µM in the test with NCI/ADR-RES ovarian; more than 100 µM with OVCAR-4 ovarian; 85.9 µM in the test on NCI-H522 lung; more than 100 µM in the test with HOP-62 NSCLC; 31.5 µM in the test on CCRF-CEM leukemia. In addition, the TGI with NCI-H460 lung and in the test on SK-MEL-28 melanoma was more than 100 µM throughout.
